Values quoted from earlier work, collected in US20200222353A1, “Ketone ester and ketone salt compositions and methods for using the same” (priority 2019, published 2020).

Legend:
[1] = in vivo
[2] = compared with D-BHB

crossing of the blood-brain barrier (BBB) [1]	SMILES	breakdown in the body and use for energy [2]
cross the blood-brain barrier	C[C@@H](O)CC(=O)O [D-BHB, (3R)-3-hydroxybutanoic acid]	–
–	C[C@H](O)CC(=O)O [L-BHB, (3 S)-3-hydroxybutanoic acid]	not to be broken down in the body and used for energy as quickly as D-BHB
